# Patent US20130071854A1, “METHODS FOR THE IDENTIFICATION AND CHARACTERIZATION OF HDAC INTERACTING COMPOUNDS” (priority 2009, published 2013)
# Legend:
# HDAC1 = target: T1, HDAC1 (Homo sapiens, UniProt Q13547); test: Chemoproteomic binding profiling, K562 cell extract, SAHA/ITF2357 probe matrix (Kd app); settings: protein HDAC1; class I HDAC; read-out: Kd^app HDAC1
# T1 construct: used to probe endogenous HDACs in K562 whole cell extracts; endogenous in cells
# [1] = target: T2, non-HDAC targets (e.g. BZW2, ISOC2, aldehyde dehydrogenases) (Homo sapiens, UniProt O94788); test: as above; settings: protein ALDH1A2; selected HDACi off-targets
# T2 construct: endogenous in cells; host or cells: K562 whole cell extract
# T2 sequence (O94788 1-518): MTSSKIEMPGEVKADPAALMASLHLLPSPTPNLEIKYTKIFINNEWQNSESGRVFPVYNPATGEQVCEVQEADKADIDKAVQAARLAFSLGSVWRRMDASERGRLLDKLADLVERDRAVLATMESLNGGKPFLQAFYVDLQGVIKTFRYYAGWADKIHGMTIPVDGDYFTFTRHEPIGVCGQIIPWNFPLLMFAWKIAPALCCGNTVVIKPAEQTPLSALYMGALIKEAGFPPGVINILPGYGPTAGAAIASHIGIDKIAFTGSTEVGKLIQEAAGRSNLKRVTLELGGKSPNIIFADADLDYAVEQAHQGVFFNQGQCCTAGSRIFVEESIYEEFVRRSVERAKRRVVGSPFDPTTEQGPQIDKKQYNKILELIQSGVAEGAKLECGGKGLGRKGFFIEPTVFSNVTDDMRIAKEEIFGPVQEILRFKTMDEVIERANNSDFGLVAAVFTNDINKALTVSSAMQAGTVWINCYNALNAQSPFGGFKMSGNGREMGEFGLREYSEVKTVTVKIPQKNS
# [2] = target: T3, non-HDAC targets (e.g. BZW2, ISOC2, aldehyde dehydrogenases) (Homo sapiens, UniProt P16152); test: as above; settings: protein CBR1; selected HDACi off-targets
# T3 construct: Kd^app CBR1; other: protein CBR1; selected HDACi off-targets
# T3 sequence (P16152 1-277): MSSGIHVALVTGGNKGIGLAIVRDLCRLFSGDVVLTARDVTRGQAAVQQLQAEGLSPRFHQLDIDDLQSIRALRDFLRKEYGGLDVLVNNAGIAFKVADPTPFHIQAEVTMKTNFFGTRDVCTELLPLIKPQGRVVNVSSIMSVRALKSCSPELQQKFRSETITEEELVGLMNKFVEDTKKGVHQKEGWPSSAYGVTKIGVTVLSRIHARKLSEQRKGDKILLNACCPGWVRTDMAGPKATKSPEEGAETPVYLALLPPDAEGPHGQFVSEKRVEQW
# [3] = target: T4, non-HDAC targets (e.g. BZW2, ISOC2, aldehyde dehydrogenases) (Homo sapiens, UniProt Q08209); test: as above; settings: protein PPP3CA; selected HDACi off-targets
# T4 construct: Kd^app PPP3CA; other: protein PPP3CA; selected HDACi off-targets
# [4] = target: T5, non-HDAC targets (e.g. BZW2, ISOC2, aldehyde dehydrogenases) (Homo sapiens, UniProt Q96AB3); test: as above; settings: protein ISOC2; selected HDACi off-targets
# T5 construct: endogenous in cells; host or cells: K562 whole cell extract
# T5 sequence (Q96AB3 1-205): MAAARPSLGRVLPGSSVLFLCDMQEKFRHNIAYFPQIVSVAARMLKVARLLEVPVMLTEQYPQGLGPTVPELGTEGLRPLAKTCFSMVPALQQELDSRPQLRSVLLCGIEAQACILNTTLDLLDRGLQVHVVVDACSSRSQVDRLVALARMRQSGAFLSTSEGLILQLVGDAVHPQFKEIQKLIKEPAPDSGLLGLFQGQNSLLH
# [5] = target: T6, non-HDAC targets (e.g. BZW2, ISOC2, aldehyde dehydrogenases) (Homo sapiens, UniProt Q9Y6E2); test: as above; settings: protein BZW2; selected HDACi off-targets
# T6 construct: endogenous in cells; host or cells: K562 whole cell extract
# T6 sequence (Q9Y6E2 1-419): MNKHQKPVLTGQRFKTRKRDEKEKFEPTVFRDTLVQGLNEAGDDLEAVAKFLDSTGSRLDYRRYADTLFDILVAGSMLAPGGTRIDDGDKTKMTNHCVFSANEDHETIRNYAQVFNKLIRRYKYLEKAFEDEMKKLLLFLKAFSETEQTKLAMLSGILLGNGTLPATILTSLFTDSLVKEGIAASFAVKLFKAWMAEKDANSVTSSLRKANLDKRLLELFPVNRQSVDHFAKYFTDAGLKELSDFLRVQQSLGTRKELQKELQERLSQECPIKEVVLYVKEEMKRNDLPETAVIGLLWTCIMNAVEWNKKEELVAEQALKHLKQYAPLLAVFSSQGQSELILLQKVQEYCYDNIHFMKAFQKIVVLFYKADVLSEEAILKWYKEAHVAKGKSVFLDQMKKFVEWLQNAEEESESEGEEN
# acetylated tubulin = test: Cell-based tubulin acetylation assay (immunofluorescence, western blotting); parameters: species or system human; settings: for tubulin acetylation (in words): K562 and HeLa cells, immunofluorescence and western blotting
# [6] = tested on: acetylated histones H3 and H4; test: Cell-based histone acetylation assay (immunofluorescence, western blotting); parameters: species or system human; settings: K562 and HeLa cells
# T1 sequence (Q13547 whole entry): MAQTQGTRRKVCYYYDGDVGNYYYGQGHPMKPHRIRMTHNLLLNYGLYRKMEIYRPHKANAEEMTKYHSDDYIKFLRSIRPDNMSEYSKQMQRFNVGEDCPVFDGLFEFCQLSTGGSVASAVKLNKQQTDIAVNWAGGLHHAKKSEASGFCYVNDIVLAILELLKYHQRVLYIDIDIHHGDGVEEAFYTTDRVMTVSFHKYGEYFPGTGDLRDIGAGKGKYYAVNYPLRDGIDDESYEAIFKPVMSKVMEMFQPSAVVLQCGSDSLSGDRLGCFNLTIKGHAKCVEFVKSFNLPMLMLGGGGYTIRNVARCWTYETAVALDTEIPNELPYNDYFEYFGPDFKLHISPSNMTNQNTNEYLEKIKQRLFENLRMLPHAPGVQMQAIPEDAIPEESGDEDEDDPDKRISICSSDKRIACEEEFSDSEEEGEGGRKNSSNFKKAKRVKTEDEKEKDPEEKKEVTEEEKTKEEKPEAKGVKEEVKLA
Kd (HDAC1) [µM],"EC50 (acetylated tubulin; Homo sapiens, HeLa cells, treated 4 h, western blotting) [µM]",SMILES,Kd [1] [µM],Kd [2] [µM],Kd [3] [µM],Kd [4] [µM],Kd [5] [µM],tubulin acetylation (in words) (acetylated tubulin),tubulin acetylation (in words) (acetylated tubulin; listed as Bufexamac),histone acetylation (in words) [6]
–,–,O=C(/C=C/c1cccc(S(=O)(=O)Nc2ccccc2)c1)NO [belinostat],> 10,1.98,3.5,> 10,2.25,–,–,–
> 59.7,2.9,CCCCOc1ccc(CC(=O)NO)cc1 [bufexamac],3,149,304,3,3,hyperacetylation of tubulin,strong increase in acetylated tubulin,did not affect the acetylation of histones
–,–,"O=C(CCCCCCC(=O)Nc1ccccc1)NO [SAHA, suberoylanilide hydroxamic acid]",–,> 10,> 10,–,–,increased steady state acetylation of tubulin and histones,–,increased steady state acetylation of tubulin and histones
358,–,"CCCC(CCC)C(=O)O [valproate, valproic acid]",> 10,> 10,> 10,> 10,> 10,did not affect tubulin,–,elicited staining of acetylated histones
–,–,Nc1ccccc1NC(=O)c1ccc(CNC(=O)OCc2cccnc2)cc1 [MS-275],> 300,> 300,> 300,> 300,> 300,–,–,–

SMILES,Kd (HDAC1) [µM],"EC50 (acetylated tubulin; Homo sapiens, HeLa cells, treated 4 h, western blotting) [µM]",Kd [1] [µM],Kd [2] [µM],Kd [3] [µM],Kd [4] [µM],Kd [5] [µM],tubulin acetylation (in words) (acetylated tubulin),tubulin acetylation (in words) (acetylated tubulin; listed as Bufexamac),histone acetylation (in words) [6]
Nc1ccccc1NC(=O)CCCCCCC(=O)Nc1ccccc1 [BML-210],36,–,> 85,> 85,> 85,> 85,> 85,–,–,–
